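Briefly, cells in 96-well plates were exposed to five compound concentrations for 48 h, and endpoints were estimated by linear interpolation. GI50 is the concentration that inhibits growth by half.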 Active and inactive are the calls of the source. Rule as the data show it: active = GI50 up to about 1.1 µM and inactive = higher. Non-standard residues stand in square brackets, D forms with d. Residues, ends and D or L forms follow the SMILES beside them. *: point of attachment. hSer = N[CH](CCO)C(=O)O; Boc = CC(C)(C)OC(=O)*
Columns and labels:
Experiment in all cases: NCI anticancer screen, dose series, 48 h
NCI-H460 = test system: NCI-H460
786-0 = test system: 786-0
SNB-19 = test system: SNB-19
A498 = test system: A498
MOLT-4 = test system: MOLT-4
T47D = test system: T47D
RXF 393 = test system: RXF 393
SR = test system: SR
UO-31 = test system: UO-31
OVCAR-8 = test system: OVCAR-8
HL-60 = test system: HL-60
KM12 = test system: KM12
SN12C = test system: SN12C
BT-549 = test system: BT-549
SF-295 = test system: SF-295
DU-145 = test system: DU-145
SW-620 = test system: SW-620
SK-MEL-5 = test system: SK-MEL-5
SK-MEL-2 = test system: SK-MEL-2
NCI-H23 = test system: NCI-H23

Structure (SMILES) | GI50 (NCI-H460) | GI50 (786-0) | GI50 (SNB-19) | GI50 (A498) | GI50 (MOLT-4) | GI50 (T47D) | GI50 (RXF 393) | GI50 (SR) | GI50 (UO-31) | GI50 (OVCAR-8) | GI50 (HL-60) | GI50 (KM12) | GI50 (SN12C) | GI50 (BT-549) | GI50 (SF-295) | GI50 (DU-145) | GI50 (SW-620) | GI50 (SK-MEL-5) | GI50 (SK-MEL-2) | GI50 (NCI-H23)
Cc1nc(N)nc2ccccc12 | > 100 µM (inactive) | > 100 µM (inactive) | > 100 µM (inactive) | > 100 µM (inactive) | > 100 µM (inactive) | > 100 µM (inactive) | > 100 µM (inactive) | > 100 µM (inactive) | > 100 µM (inactive) | > 100 µM (inactive) | > 100 µM (inactive) | > 100 µM (inactive) | > 100 µM (inactive) | > 100 µM (inactive) | > 100 µM (inactive) | > 100 µM (inactive) | > 100 µM (inactive) | > 100 µM (inactive) | > 100 µM (inactive) | > 100 µM (inactive)
Cc1ccc(S(=O)(=O)OCC(=O)O)cc1 | > 100 µM (inactive) | > 100 µM (inactive) | > 100 µM (inactive) | > 100 µM (inactive) | > 100 µM (inactive) | > 100 µM (inactive) | > 100 µM (inactive) | > 100 µM (inactive) | > 100 µM (inactive) | > 100 µM (inactive) | > 100 µM (inactive) |  | > 100 µM (inactive) | > 100 µM (inactive) | > 100 µM (inactive) | > 100 µM (inactive) | > 100 µM (inactive) | > 100 µM (inactive) | > 100 µM (inactive) | > 100 µM (inactive)
CNC(=O)CNC(=O)N(C[C@@H]1CCCN1C(=O)[C@H](CC(C)C)NC(=O)OC(C)(C)C)C(C)C | > 100 µM (inactive) | > 100 µM (inactive) | > 100 µM (inactive) | > 100 µM (inactive) | > 100 µM (inactive) | > 100 µM (inactive) | > 100 µM (inactive) | > 100 µM (inactive) | > 100 µM (inactive) | > 100 µM (inactive) | > 100 µM (inactive) | > 100 µM (inactive) | > 100 µM (inactive) | > 100 µM (inactive) | > 100 µM (inactive) | > 100 µM (inactive) | > 100 µM (inactive) | > 100 µM (inactive) | > 100 µM (inactive) | > 100 µM (inactive)
CC1(c2ccc(Cl)cc2)C=C(c2ccc(Cl)cc2)C(C#N)=C(C(C#N)C#N)N1.CNC (stereo not given) | 20.4 µM (inactive) | 13.8 µM (inactive) | 18.2 µM (inactive) | 17.9 µM (inactive) | 13.6 µM (inactive) | 14.2 µM (inactive) | 18.7 µM (inactive) | 15.7 µM (inactive) | 16.4 µM (inactive) | 14.5 µM (inactive) | 13.1 µM (inactive) | 17.3 µM (inactive) | 18.3 µM (inactive) | 21.2 µM (inactive) | 17.6 µM (inactive) | 16.1 µM (inactive) | 12.7 µM (inactive) | 14.2 µM (inactive) | 19.5 µM (inactive) | 15.3 µM (inactive)
CCOC(=O)c1oc2cc3c(c4c2c1-c1ccccc1N4C)C=CC(C)(C)O3 | 20.5 µM (inactive) | 7.06 µM (inactive) | 14.7 µM (inactive) | 25.9 µM (inactive) | 14 µM (inactive) | 16.9 µM (inactive) | 7.31 µM (inactive) | 0.56 µM (active) | 19.5 µM (inactive) | 5.85 µM (inactive) | 24.4 µM (inactive) | 16.3 µM (inactive) | 40.6 µM (inactive) | 23.6 µM (inactive) | 8.81 µM (inactive) | 18.7 µM (inactive) | 59.8 µM (inactive) | 15.8 µM (inactive) | 26.6 µM (inactive) | 22.2 µM (inactive)
COc1cc2c(c(OC)c1OC)-c1ccc(OC)c(=O)cc1C(NC(=O)COc1ccccc1)CC2 (stereo not given) | < 0.01 µM (active) | < 0.01 µM (active) | < 0.01 µM (active) | < 0.01 µM (active) | < 0.01 µM (active) | 39.9 µM (inactive) | 0.0184 µM (active) | < 0.01 µM (active) | 0.0402 µM (active) | < 0.01 µM (active) | 0.0372 µM (active) | < 0.01 µM (active) | < 0.01 µM (active) | < 0.01 µM (active) | < 0.01 µM (active) | < 0.01 µM (active) | < 0.01 µM (active) | < 0.01 µM (active) | < 0.01 µM (active) | < 0.01 µM (active)
[N-]=[N+]=NC1C(O)C(CO)OC1n1ccc(=O)[nH]c1=O (stereo not given) | > 875 µM (inactive) | > 875 µM (inactive) | > 875 µM (inactive) | > 875 µM (inactive) | > 875 µM (inactive) | > 875 µM (inactive) | 0.0875 µM (active) | > 875 µM (inactive) | > 875 µM (inactive) | > 875 µM (inactive) | 863 µM (inactive) | > 875 µM (inactive) | > 875 µM (inactive) | > 875 µM (inactive) | > 875 µM (inactive) | > 875 µM (inactive) | > 875 µM (inactive) | > 875 µM (inactive) | > 875 µM (inactive) | > 875 µM (inactive)
O=C(NCc1ccc(Cl)c(Cl)c1)c1nc2ccccc2nc1NCc1ccc(Cl)c(Cl)c1 | > 100 µM (inactive) | > 100 µM (inactive) | > 100 µM (inactive) | > 100 µM (inactive) |  | > 100 µM (inactive) | > 100 µM (inactive) | > 100 µM (inactive) | > 100 µM (inactive) | > 100 µM (inactive) | > 100 µM (inactive) | > 100 µM (inactive) | > 100 µM (inactive) | > 100 µM (inactive) | > 100 µM (inactive) | > 100 µM (inactive) | > 100 µM (inactive) | > 100 µM (inactive) | > 100 µM (inactive) | > 100 µM (inactive)
CO[C@@H](c1ccccc1)[C@H](O)[C@](O)(c1ccccc1)P(=O)(OC)OC | > 100 µM (inactive) | > 100 µM (inactive) | > 100 µM (inactive) | > 100 µM (inactive) | > 100 µM (inactive) | > 100 µM (inactive) | > 100 µM (inactive) | > 100 µM (inactive) | > 100 µM (inactive) | > 100 µM (inactive) | > 100 µM (inactive) | > 100 µM (inactive) | > 100 µM (inactive) | 47.6 µM (inactive) | > 100 µM (inactive) | > 100 µM (inactive) | > 100 µM (inactive) | > 100 µM (inactive) | > 100 µM (inactive) | > 100 µM (inactive)
CNC(=S)NNc1ncnc2c1ncn2-c1ccc(C)cc1 | > 100 µM (inactive) | > 100 µM (inactive) | > 100 µM (inactive) | > 100 µM (inactive) | > 100 µM (inactive) | > 100 µM (inactive) | > 100 µM (inactive) | > 100 µM (inactive) | > 100 µM (inactive) | > 100 µM (inactive) | > 100 µM (inactive) | > 100 µM (inactive) | > 100 µM (inactive) | > 100 µM (inactive) | > 100 µM (inactive) | > 100 µM (inactive) | > 100 µM (inactive) | > 100 µM (inactive) | > 100 µM (inactive) | > 100 µM (inactive)
CC12CCC([C@H](C(O)C3CCCCC3)C1=O)C2(C)C (stereo not given in full) | > 100 µM (inactive) | > 100 µM (inactive) | > 100 µM (inactive) | > 100 µM (inactive) | 44.3 µM (inactive) | > 100 µM (inactive) | 75.2 µM (inactive) | 22.4 µM (inactive) | > 100 µM (inactive) | > 100 µM (inactive) | 13.9 µM (inactive) | > 100 µM (inactive) | > 100 µM (inactive) | > 100 µM (inactive) | > 100 µM (inactive) | > 100 µM (inactive) | > 100 µM (inactive) | 82.2 µM (inactive) | > 100 µM (inactive) | > 100 µM (inactive)
COc1ccc2c(c1)CCC(CN1CCN(CCOC(c3ccc(F)cc3)c3ccc(F)cc3)CC1)C2O (stereo not given) | 16.4 µM (inactive) | 11.7 µM (inactive) | 17.2 µM (inactive) | 3.93 µM (inactive) | 10.5 µM (inactive) | 11.2 µM (inactive) | 12.3 µM (inactive) | 6.28 µM (inactive) |  | 13.8 µM (inactive) | 0.687 µM (active) | 19.1 µM (inactive) | 17.3 µM (inactive) | 14.4 µM (inactive) | 17.9 µM (inactive) | 18.1 µM (inactive) | 21.1 µM (inactive) | 5.65 µM (inactive) | 15 µM (inactive) | 14.5 µM (inactive)
COc1nc(C(=O)NNC(=O)c2nc(OC)c3ccccc3c2-c2ccccc2)c(-c2ccccc2)c2ccccc12 |  | > 100 µM (inactive) | > 100 µM (inactive) | > 100 µM (inactive) | > 100 µM (inactive) | > 100 µM (inactive) | > 100 µM (inactive) | 0.113 µM (active) | > 100 µM (inactive) | > 100 µM (inactive) | > 100 µM (inactive) | > 100 µM (inactive) | > 100 µM (inactive) | > 100 µM (inactive) | > 100 µM (inactive) | > 100 µM (inactive) | > 100 µM (inactive) | > 100 µM (inactive) | > 100 µM (inactive) | > 100 µM (inactive)
COCCC(NC(=O)C(CC(C)C)NC(=O)OC(C)(C)C)C(N)=O (stereo not drawn) (Boc-Leu-[hSer](Me)-NH2; configuration not given here) | > 100 µM (inactive) | > 100 µM (inactive) | > 100 µM (inactive) | > 100 µM (inactive) | > 100 µM (inactive) | > 100 µM (inactive) | > 100 µM (inactive) | > 100 µM (inactive) | > 100 µM (inactive) | > 100 µM (inactive) | > 100 µM (inactive) | > 100 µM (inactive) | > 100 µM (inactive) | > 100 µM (inactive) | > 100 µM (inactive) | > 100 µM (inactive) | > 100 µM (inactive) | > 100 µM (inactive) | > 100 µM (inactive) | 

— ChEMBL document CHEMBL1201862, “PubChem BioAssay data set” (2004)
